For one test, the system named is W2 strain. In words: parasite proliferation assay in infected red blood cells (SYBR Green I), W2 strain. Format: cell-based. The settings on record: Erythrocyte. The source says:
Compounds of the invention can be assayed to measure their capacity to inhibit proliferation of parasitemia in infected red blood cells. The proliferation is quantified by the addition of SYBR Green I (INVITROGEN)® dye which has a high affinity for double stranded DNA.

The test system of a further test is 3D7 P. falciparum strain. In words: parasite proliferation assay in infected red blood cells (SYBR Green I). Format: cell-based, Plasmodium falciparum. The settings on record: Plasmodium falciparum, 3D7, Erythrocyte, 3D7 strain; read-out: EC50 3D7 strain. In short, it runs like this: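 P. falciparum 3D7 grown in O+ human erythrocytes to 3–8% parasitemia and exposed to compounds. Proliferation read as the increase in parasite DNA. Detection used SYBR Green I in saponin/triton-X/EDTA lysis buffer, with overnight lysis at room temperature.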

Broadly, the EC50 is the concentration giving half of the maximal effect.

In the case of `Cc1ccc(Nc2c(-c3ccc(F)cc3)nc3n2CCN(C(=O)C(c2ccccc2)C2CCCC2)C3)cc1` (stereo not drawn) [Compound 226], the results for the EC50 in the test on W2 strain and in the test with 3D7 P. falciparum strain were 0.348 µM and 0.48 µM, respectively.
`Cc1ccc(Nc2c(-c3ccc(F)cc3)nc3n2CCN(C(=O)Cc2ccncc2)C3)cc1` [Compound 227]: the 50% effective concentration (EC50) with W2 strain stood at 0.103 µM; in the test on 3D7 P. falciparum strain it was 0.09 µM.
The matching figures for `NCC(=O)N1CCn2c(nc(-c3cccc(F)c3)c2Nc2ccc(Cl)c(F)c2)C1` [Compound 228]: 0.008 µM and 0.01 µM.
In the case of `CC(C)(N)C(=O)N1CCn2c(nc(-c3cccc(F)c3)c2Nc2ccc(Cl)c(F)c2)C1` [Compound 229], the figures for the half-maximal effective concentration (EC50) with W2 strain and in the test on 3D7 P. falciparum strain were 0.007 µM and 0.01 µM, respectively.
Regarding `Cc1ccc(Nc2c(-c3ccc(F)cc3)nc3n2CCN(C(=O)Cc2cc(Cl)cc(Cl)c2)C3)cc1` [Compound 230], the half-maximal effective concentration (EC50) in the test on W2 strain turned out to be 0.255 µM; in the test on 3D7 P. falciparum strain it was 0.32 µM.
On to `Cc1ccc(Nc2c(-c3ccc(F)cc3)nc3n2CCN(C(=O)C(c2ccccc2)C(C)C)C3)cc1` (stereo not drawn) [Compound 231], for which the results for the half-maximal effective concentration (EC50) in the test on W2 strain and with 3D7 P. falciparum strain were 0.07 µM and 0.09 µM, respectively.
The matching figures for `Cc1ccc(CC(=O)N2CCn3c(nc(-c4ccc(F)cc4)c3Nc3ccc(C)cc3)C2)cc1` [Compound 232]: 0.044 µM and 0.05 µM.
`Cc1ccc(Nc2c(-c3ccc(F)cc3)nc3n2CCN(C(=O)Cc2ccc(F)cc2)C3)cc1` [Compound 233]: the EC50 in the test on W2 strain turned out to be 0.015 µM; with 3D7 P. falciparum strain, 0.01 µM.
In the same order, the values of `CC(C)(O)CC(=O)N1CCn2c(nc(-c3cccc(F)c3)c2Nc2ccc(Cl)c(F)c2)C1` [Compound 234] are 0.111 µM and 0.13 µM.
The matching figures for `CC(C)(O)CC(=O)N1CCn2c(nc(-c3cccc(F)c3)c2Nc2ccc(F)cc2)C1` [Compound 235]: 0.496 µM and 0.54 µM.
The matching figures for `CC(C)(C)OC(=O)N[C@@H](CC(=O)OCc1ccccc1)C(=O)N1CCn2c(nc(-c3cccc(F)c3)c2Nc2ccc(Cl)c(F)c2)C1` [Compound 236]: 2.06 µM and 5.25 µM.
For `CC(C)(C)OC(=O)N[C@@H](CC(=O)OCc1ccccc1)C(=O)N1CCn2c(nc(-c3cccc(F)c3)c2Nc2ccc(F)cc2)C1` [Compound 237], the results for the EC50 in the test with W2 strain and with 3D7 P. falciparum strain were 5.72 µM and 7.19 µM, respectively.
As for `CC(C)(C)OC(=O)N[C@@H](CC(=O)O)C(=O)N1CCn2c(nc(-c3cccc(F)c3)c2Nc2ccc(Cl)c(F)c2)C1` [Compound 240], the 50% effective concentration (EC50) with W2 strain turned out to be 6.99 µM; with 3D7 P. falciparum strain, 10.5 µM.
Take `CC(C)(C)OC(=O)N[C@@H](CC(=O)O)C(=O)N1CCn2c(nc(-c3cccc(F)c3)c2Nc2ccc(F)cc2)C1` [Compound 241]: the EC50 with W2 strain worked out at 2.36 µM; with 3D7 P. falciparum strain it was 5.27 µM.
The matching figures for `CC(C)(C)OC(=O)N[C@@H](Cc1ccc(N)cc1)C(=O)N1CCn2c(nc(-c3cccc(F)c3)c2Nc2ccc(Cl)c(F)c2)C1` [Compound 242]: 0.288 µM and 2.09 µM.
For `CC(C)(C)OC(=O)N[C@@H](Cc1ccc(N)cc1)C(=O)N1CCn2c(nc(-c3cccc(F)c3)c2Nc2ccc(F)cc2)C1` [Compound 243], the EC50 in the test with W2 strain amounted to 0.697 µM; with 3D7 P. falciparum strain, 2.97 µM.
The matching figures for `Cc1ccc(Nc2c(-c3ccc(F)cc3)nc3n2CCN(C(=O)C(C)(C)CO)C3)cc1` [Compound 244]: 1.33 µM and 2.4 µM.
Take `Cc1ccc(Nc2c(-c3ccc(F)cc3)nc3n2CCN(C(=O)C(C)(CO)CO)C3)cc1` [Compound 245]: the EC50 is 1.8 µM with W2 strain and 2.53 µM with 3D7 P. falciparum strain.
As for `Cc1ccc(Nc2c(-c3ccc(F)cc3)nc3n2CCN(C(=O)[C@H](Cc2cccc(N)c2)NC(=O)OC(C)(C)C)C3)cc1` [Compound 246], the 50% effective concentration (EC50) in the test with W2 strain was determined as 1.79 µM; in the test with 3D7 P. falciparum strain it was 3.88 µM.
The matching figures for `CCCNC(=O)C[C@H](NC(=O)OC(C)(C)C)C(=O)N1CCn2c(nc(-c3cccc(F)c3)c2Nc2ccc(Cl)c(F)c2)C1` [Compound 247]: 3.94 µM and 1.42 µM.
Turning to `CCCNC(=O)C[C@H](NC(=O)OC(C)(C)C)C(=O)N1CCn2c(nc(-c3cccc(F)c3)c2Nc2ccc(F)cc2)C1` [Compound 248], the EC50 in the test on W2 strain was found to be 4.56 µM; with 3D7 P. falciparum strain, 7.01 µM.
The matching figures for `N#Cc1ccc(Nc2c(-c3ccc(F)cc3)nc3n2CCNC3)cc1` [Compound 249]: 5.05 µM and 5.39 µM.
Turning to `CCCCCNC(=O)C[C@H](NC(=O)OC(C)(C)C)C(=O)N1CCn2c(nc(-c3cccc(F)c3)c2Nc2ccc(F)cc2)C1` [Compound 250], the EC50 stood at 3.98 µM in the test on W2 strain and 3.88 µM in the test with 3D7 P. falciparum strain.
For the molecule `CCCCC(=O)Nc1ccc(C[C@H](NC(=O)OC(C)(C)C)C(=O)N2CCn3c(nc(-c4cccc(F)c4)c3Nc3ccc(Cl)c(F)c3)C2)cc1` [Compound 252], the EC50 with W2 strain worked out at 0.631 µM; with 3D7 P. falciparum strain, 3.03 µM.
The matching figures for `CCC(=O)Nc1ccc(C[C@H](NC(=O)OC(C)(C)C)C(=O)N2CCn3c(nc(-c4cccc(F)c4)c3Nc3ccc(Cl)c(F)c3)C2)cc1` [Compound 253]: 0.254 µM and 0.78 µM.
In the same order, the values of `CCCCC(=O)Nc1ccc(C[C@H](NC(=O)OC(C)(C)C)C(=O)N2CCn3c(nc(-c4cccc(F)c4)c3Nc3ccc(F)cc3)C2)cc1` [Compound 254] are 0.727 µM and 3.44 µM.
The matching figures for `CCCNC(=O)C[C@H](N)C(=O)N1CCn2c(nc(-c3cccc(F)c3)c2Nc2ccc(Cl)c(F)c2)C1` [Compound 255]: 0.653 µM and 0.61 µM.
As to `CCCNC(=O)C[C@H](N)C(=O)N1CCn2c(nc(-c3cccc(F)c3)c2Nc2ccc(F)cc2)C1` [Compound 256], the figures for the EC50 in the test on W2 strain and in the test on 3D7 P. falciparum strain were 1.48 µM and 1.16 µM, respectively.
With `CCCCCNC(=O)C[C@H](N)C(=O)N1CCn2c(nc(-c3cccc(F)c3)c2Nc2ccc(F)cc2)C1` [Compound 257], the EC50 in the test on W2 strain was found to be 7 µM; with 3D7 P. falciparum strain, 6.68 µM.
`CCCCC(=O)Nc1ccc(C[C@H](N)C(=O)N2CCn3c(nc(-c4cccc(F)c4)c3Nc3ccc(Cl)c(F)c3)C2)cc1` [Compound 258]: the EC50 with W2 strain came to 3.51 µM; with 3D7 P. falciparum strain it was 4.92 µM.
The matching figures for `CCC(=O)Nc1ccc(C[C@H](N)C(=O)N2CCn3c(nc(-c4cccc(F)c4)c3Nc3ccc(Cl)c(F)c3)C2)cc1` [Compound 259]: 3.02 µM and 5.32 µM.
In the same order, the values of `CCCCC(=O)Nc1ccc(C[C@H](N)C(=O)N2CCn3c(nc(-c4cccc(F)c4)c3Nc3ccc(F)cc3)C2)cc1` [Compound 260] are 5.01 µM and 7.64 µM.
The matching figures for `CCC(=O)Nc1ccc(C[C@H](N)C(=O)N2CCn3c(nc(-c4cccc(F)c4)c3Nc3ccc(F)cc3)C2)cc1` [Compound 261]: 4.13 µM and 7.06 µM.
Take `CC(C)(N)C(=O)N1CCn2c(nc(-c3ccc(F)cc3)c2Nc2ccc(C#N)cc2)C1` [Compound 263]: the values for the EC50 with W2 strain and in the test with 3D7 P. falciparum strain were 0.653 µM and 0.35 µM, respectively.
For `N#Cc1ccc(Nc2c(-c3ccc(F)cc3)nc3n2CCN(C(=O)CN)C3)cc1` [Compound 264], the values for the EC50 with W2 strain and with 3D7 P. falciparum strain were 0.154 µM and 0.11 µM, respectively.
In the same order, the values of `CC(C)(O)CC(=O)N1CCn2c(nc(-c3ccc(F)cc3)c2Nc2ccc(C#N)cc2)C1` [Compound 265] are 1.58 µM and 1.35 µM.
On to `CCCCCNc1ccc(C[C@H](NC(=O)OC(C)(C)C)C(=O)N2CCn3c(nc(-c4ccc(F)cc4)c3Nc3ccc(C)cc3)C2)cc1` [Compound 267, (S)-tert-butyl 1-(2-(4-fluorophenyl)-3-(p-tolylamino)-5,6-dihydroimidazo[1,2-a]pyrazin-7 (8H)-yl)-1-oxo-3-(4-(pentylamino)phenyl)propan-2-ylcarbamate], for which the results for the EC50 with W2 strain and in the test with 3D7 P. falciparum strain were 0.474 µM and 0.99 µM, respectively.
As to `CCC(=O)OC(C(=O)N1CCn2c(nc(-c3ccc(F)cc3)c2Nc2ccc(C)cc2)C1)c1ccccc1` (stereo not drawn) [Compound 268], the EC50 with W2 strain worked out at 0.012 µM; in the test with 3D7 P. falciparum strain it was 0.01 µM.
Regarding `CCCC(=O)OC(C(=O)N1CCn2c(nc(-c3ccc(F)cc3)c2Nc2ccc(C)cc2)C1)c1ccccc1` (stereo not drawn) [Compound 269], the EC50 in the test with W2 strain worked out at 0.006 µM; in the test with 3D7 P. falciparum strain it was 0.01 µM.
The matching figures for `O=C(CN1CCn2c(nc(-c3ccc(F)cc3)c2Nc2ccc(Cl)cc2)C1)c1ccc(F)cc1` [Compound 271]: 0.385 µM and 0.44 µM.
With `CCCCCNc1ccc(C[C@H](N)C(=O)N2CCn3c(nc(-c4ccc(F)cc4)c3Nc3ccc(C)cc3)C2)cc1` [Compound 272], the EC50 in the test on W2 strain was found to be 3.26 µM; in the test with 3D7 P. falciparum strain it was 3.59 µM.
For `Cc1ccc(Nc2c(-c3ccc(F)cc3)nc3n2CCN(C(=O)N2CCC(N4CCCC(C)C4)CC2)C3)cc1` (stereo not drawn) [Compound 273], the EC50 in the test on W2 strain was 3.47 µM; with 3D7 P. falciparum strain, 3.33 µM.
Consider `Cc1ccc(Nc2c(-c3ccc(F)cc3)nc3n2CCN(C(=O)N2CCC(N4CCCCC4)CC2)C3)cc1` [Compound 274], for which the 50% effective concentration (EC50) in the test on W2 strain is 5.67 µM; in the test with 3D7 P. falciparum strain, 5.14 µM.
Take `Cc1ccc(Nc2c(-c3ccc(F)c(F)c3)nc3n2CCNC3)cc1` [Compound 278]: the values for the concentration for a half-maximal effect (EC50) in the test with W2 strain and in the test on 3D7 P. falciparum strain were 0.269 µM and 0.21 µM, respectively.
In the same order, the values of `Cc1ccc(Nc2c(-c3cccc(Cl)c3)nc3n2CCNC3)cc1` [Compound 279] are 3.83 µM and 3.52 µM.
The matching figures for `Cc1ccc(Nc2c(-c3ccc(F)cc3F)nc3n2CCNC3)cc1` [Compound 280]: 4.65 µM and 4.71 µM.
In the same order, the values of `CC(O)CN[C@@H](Cc1ccccc1)C(=O)N1CCn2c(nc(-c3ccc(F)cc3)c2Nc2ccc(Cl)c(F)c2)C1` (stereo partly drawn) [Compound 281] are 0.596 µM and 0.82 µM.
Consider `COCCN[C@@H](Cc1ccccc1)C(=O)N1CCn2c(nc(-c3ccc(F)cc3)c2Nc2ccc(Cl)c(F)c2)C1` [Compound 282], for which the EC50 is 0.117 µM in the test with W2 strain and 0.12 µM in the test on 3D7 P. falciparum strain.

The record behind these values is US9469645B2, “Compounds and compositions for the treatment of parasitic diseases” (Novartis AG, priority 2009, dated 2016).
